Tests used:
[1] = molecular target: T1, human vasopressin V1b receptor (Homo sapiens, UniProt P47901); assay: Vasopressin V1b receptor binding assay; conditions: CHO-K1 membranes, 3H-AVP displacement
T1 construct: expressed in transfected cells; host or cells: CHO-K1 (cell line hV1b_3H2_CHO), membrane preparation
T1 sequence (P47901 1-424): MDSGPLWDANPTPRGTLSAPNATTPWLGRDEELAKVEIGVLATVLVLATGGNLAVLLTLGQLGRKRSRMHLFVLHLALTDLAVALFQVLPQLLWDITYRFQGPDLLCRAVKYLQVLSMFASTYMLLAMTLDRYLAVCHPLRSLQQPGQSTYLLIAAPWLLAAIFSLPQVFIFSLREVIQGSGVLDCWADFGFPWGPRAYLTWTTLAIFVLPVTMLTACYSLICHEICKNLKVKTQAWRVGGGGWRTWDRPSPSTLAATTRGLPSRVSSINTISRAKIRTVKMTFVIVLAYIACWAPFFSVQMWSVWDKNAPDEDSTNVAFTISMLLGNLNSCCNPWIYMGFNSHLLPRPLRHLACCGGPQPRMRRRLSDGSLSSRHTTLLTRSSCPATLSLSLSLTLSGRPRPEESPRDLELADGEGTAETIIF
Outline: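 Membranes (50 μg/ml protein) from CHO-K1 cells stably expressing human V1b were incubated with 1.5 nM ^3H-AVP in 50 mM Tris, 10 mM MgCl2, 0.1% BSA, pH 7.4, for 60 min at room temperature, 2% DMSO final. Bound ligand measured after filtration; Ki derived by nonlinear regression using Kd 0.4 nM.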

[2] = molecular target: T2, human vasopressin V1a receptor (Homo sapiens, UniProt P37288); assay: Vasopressin V1a receptor binding assay; conditions: selectivity quotient, human receptors
T2 construct: expressed in transfected cells; host or cells: CHO-K1 (cell line hV1a_5_CHO), membrane preparation
Outline: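 Membranes from CHO-K1 cells stably expressing the receptor (hV1a_5_CHO; 20 μg/ml protein) were incubated 60 min at room temperature with 0.04 nM ^125I-AVP and increasing test compound in 50 mM Tris, 10 mM MgCl2, 0.1% BSA, pH 7.4. Nonspecific binding was defined with 1 μM AVP and read by filtration and scintillation. Ki came from nonlinear regression using Kd 1.33 nM.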

human oxytocin receptors = molecular target: T3, human oxytocin receptors (Homo sapiens, UniProt P30559); assay: Oxytocin receptor binding assay; conditions: selectivity quotient
T3 construct: expressed in transfected cells; host or cells: HEK-293, transient expression; lysed and homogenized cells
T3 sequence (P30559 1-389): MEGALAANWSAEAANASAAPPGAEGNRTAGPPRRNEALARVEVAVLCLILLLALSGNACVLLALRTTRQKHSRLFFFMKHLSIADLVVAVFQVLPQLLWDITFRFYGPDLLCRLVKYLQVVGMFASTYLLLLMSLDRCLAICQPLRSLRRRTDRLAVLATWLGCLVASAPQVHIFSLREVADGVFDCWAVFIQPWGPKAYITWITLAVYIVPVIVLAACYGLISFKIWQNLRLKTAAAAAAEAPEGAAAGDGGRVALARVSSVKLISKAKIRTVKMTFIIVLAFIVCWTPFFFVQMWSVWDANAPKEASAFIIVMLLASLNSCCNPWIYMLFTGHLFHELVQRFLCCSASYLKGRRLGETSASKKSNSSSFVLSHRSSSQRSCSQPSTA
Outline: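 Membranes from HEK-293 cells transiently expressing human oxytocin receptor, incubated with 3-4 nM ^3H-oxytocin in 50 mM Tris, 10 mM MgCl2, 0.1% BSA, pH 7.4; nonspecific binding with 10^−6 M oxytocin. Filtration and scintillation counting; Ki by nonlinear regression using Kd 7.6 nM.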

T2 sequence (P37288 whole entry): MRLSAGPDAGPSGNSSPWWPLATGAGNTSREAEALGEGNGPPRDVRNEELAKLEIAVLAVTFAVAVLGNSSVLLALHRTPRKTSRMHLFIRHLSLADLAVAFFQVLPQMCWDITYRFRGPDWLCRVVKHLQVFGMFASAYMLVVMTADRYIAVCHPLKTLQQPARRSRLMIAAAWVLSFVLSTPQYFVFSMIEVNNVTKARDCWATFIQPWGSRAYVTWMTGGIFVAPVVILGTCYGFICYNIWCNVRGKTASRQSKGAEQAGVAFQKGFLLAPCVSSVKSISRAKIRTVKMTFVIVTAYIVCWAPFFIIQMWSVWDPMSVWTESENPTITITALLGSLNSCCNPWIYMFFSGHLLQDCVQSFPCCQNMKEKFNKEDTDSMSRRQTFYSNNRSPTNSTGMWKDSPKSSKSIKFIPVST

| Compound | Ki [1] [nM] | Ki(h − V1a)/Ki(h − V1b)* [2] | Ki(h − OT)/Ki(h − V1b)* (human oxytocin receptors) |
| --- | --- | --- | --- |
| CCOc1ncccc1C1(NC(=O)N2CCC(N3CCN(C)CC3)CC2)C(=O)N(S(=O)(=O)c2ccc(OC)cc2OC)c2cc(F)c(C#N)cc21 (stereo not drawn) [Example 3, 4-(4-Methylpiperazin-1-yl)piperidine-1-[5-cyano-1-(2,4-dimethoxyphenylsulfonyl)-3-(2-ethoxypyridin-3-yl)-6-fluoro-2-oxo-2,3-dihydro-1H-indol-3-yl]carboxamide] | < 1 | ++ (25-75) | +++ (>75) |
| CCOc1ncccc1C1(OC(=O)N2CCN(C3CCN(C)CC3)CC2)C(=O)N(S(=O)(=O)c2ccc(OC)cc2OC)c2cc(F)c(F)cc21 (stereo not drawn) [Example 51, 1-(2,4-dimethoxyphenylsulfonyl)-3-(2-ethoxypyridin-3-yl)-5,6-difluoro-2-oxo-2,3-dihydro-1H-indol-3-yl 4-(1-methylpiperidin-4-yl)piperazine-1-carboxylate] | 1 to 10 | +++ (>75) | ++ (25-75) |
| CCOc1ccccc1C1(NC(=O)N2CCN(C3CCN(C)CC3)CC2)C(=O)N(S(=O)(=O)c2ccc(OC)cc2)c2cc(F)c(C#N)cc21 (stereo not drawn) [Example 10, 4-(1-Methylpiperidin-4-yl)piperazine-1-[5-cyano-3-(2-ethoxyphenyl)-6-fluoro-1-(4-methoxyphenylsulfonyl)-2-oxo-2,3-dihydro-1H-indol-3-yl]carboxamide] | 1 to 10 | ++ (25-75) | + (10-<25) |
| CCOc1ncccc1C1(NC(=O)N2CCN(C3CCN(CC)CC3)CC2)C(=O)N(S(=O)(=O)c2ccc(OC)cc2OC)c2cc(F)c(F)cc21 (stereo not drawn) [Example 33, 4-(1-Ethylpiperidin-4-yl)piperazine-1-[1-(2,4-dimethoxyphenylsulfonyl)-3-(2-ethoxy-pyridin-3-yl)-5,6-difluoro-2-oxo-2,3-dihydro-1H-indol-3-yl]carboxamide] | 1 to 10 | +++ (>75) | +++ (>75) |
| CCOc1ncccc1C1(NC(=O)N2CCN(C3CCN(C)CC3)CC2)C(=O)N(S(=O)(=O)c2ccc(OC)cc2OC)c2cc(F)c(F)cc21 (stereo not drawn) [Example 31, 4-(1-Methylpiperidin-4-yl)piperazine-1-[1-(2,4-dimethoxyphenylsulfonyl)-3-(2-ethoxy-pyridin-3-yl)-5,6-difluoro-2-oxo-2,3-dihydro-1H-indol-3-yl]carboxamide] | 10 to 100 | +++ (>75) | + (10-<25) |
| CCOc1ncccc1C1(NC(=O)N2CCC(N3CCN(C)CC3)CC2)C(=O)N(S(=O)(=O)c2ccc(OC)cc2OC)c2cc(F)c(F)cc21 (stereo not drawn) [Example 35, 4-(4-Methylpiperazin-1-yl)piperidine-1-[1-(2,4-dimethoxyphenylsulfonyl)-3-(2-ethoxy-pyridin-3-yl)-5,6-difluoro-2-oxo-2,3-dihydro-1H-indol-3-yl]carboxamide] | 1 to 10 | + (10-<25) | + (10-<25) |
| CCOc1ncccc1C1(OC(=O)N2CCN(C3CCN(C)CC3)CC2)C(=O)N(S(=O)(=O)c2ccccc2OC)c2cc(Cl)c(F)cc21 (stereo not drawn) [Example 50, 6-Chloro-3-(2-ethoxypyridin-3-yl)-5-fluoro-1-(2-methoxyphenylsulfonyl)-2-oxo-2,3-dihydro-1H-indol-3-yl 4-(1-methylpiperidin-4-yl)piperazine-1-carboxylate] | 10 to 100 | + (10-<25) | ++ (25-75) |
| CCOc1ncccc1C1(NC(=O)N2CCN(C3CCN(CC)CC3)CC2)C(=O)N(S(=O)(=O)c2ccccc2)c2cc(F)c(Cl)cc21 (stereo not drawn) [Example 22, 4-(1-Ethylpiperidin-4-yl)piperazine-1-[1-phenylsulfonyl-5-chloro-3-(2-ethoxypyridin-3-yl)-6-fluoro-2-oxo-2,3-dihydro-1H-indol-3-yl]carboxamide] | 1 to 10 | + (10-<25) | +++ (>75) |
| CCOc1ncccc1C1(OC(=O)N2CCN(C3CCN(C)CC3)CC2)C(=O)N(S(=O)(=O)c2ccc(OC)cc2OC)c2cc(F)c(Cl)cc21 (stereo not drawn) [Example 41, 5-Chloro-1-(2,4-dimethoxyphenylsulfonyl)-3-(2-ethoxypyridin-3-yl)-6-fluoro-2-oxo-2,3-dihydro-1H-indol-3-yl 4-(1-methylpiperidin-4-yl)piperazine-1-carboxylate] | < 1 | + (10-<25) | + (10-<25) |
| CCOc1ncccc1C1(NC(=O)N2CCN(C3CCN(CC)CC3)CC2)C(=O)N(S(=O)(=O)c2ccc(OC)cc2)c2cc(F)c(C#N)cc21 (stereo not drawn) [Example 6, 4-(1-Ethylpiperidin-4-yl)piperazine-1-[5-cyano-3-(2-ethoxypyridin-3-yl)-6-fluoro-1-(4-methoxyphenylsulfonyl)-2-oxo-2,3-dihydro-1H-indol-3-yl]carboxamide] | 1 to 10 | +++ (>75) | +++ (>75) |
| CCOc1ncccc1C1(NC(=O)N2CCC(N3CCN(C)CC3)CC2)C(=O)N(S(=O)(=O)c2ccc(OC)cc2)c2cc(F)c(C#N)cc21 (stereo not drawn) [Example 7, 4-(4-Methylpiperazin-1-yl)piperidine-1-[5-cyano-3-(2-ethoxypyridin-3-yl)-6-fluoro-1-(4-methoxyphenylsulfonyl)-2-oxo-2,3-dihydro-1H-indol-3-yl]carboxamide] | 1 to 10 | + (10-<25) | +++ (>75) |
| CCOc1ncccc1C1(OC(=O)N2CCN(C3CCN(C)CC3)CC2)C(=O)N(S(=O)(=O)c2ccc(OC)cc2)c2cc(F)c(Cl)cc21 (stereo not drawn) [Example 42, 5-Chloro-3-(2-ethoxypyridin-3-yl)-6-fluoro-1-(4-methoxyphenylsulfonyl)-2-oxo-2,3-dihydro-1H-indol-3-yl 4-(1-methylpiperidin-4-yl)piperazine-1-carboxylate] | < 1 | + (10-<25) | + (10-<25) |
| CCOc1ncccc1C1(NC(=O)N2CCN(C3CCN(CC)CC3)CC2)C(=O)N(S(=O)(=O)c2ccc(OC)cc2OC)c2cc(F)c(C#N)cc21 (stereo not drawn) [Example 2, 4-(1-Ethylpiperidin-4-yl)piperazine-1-[5-cyano-1-(2,4-dimethoxyphenylsulfonyl)-3-(2-ethoxypyridin-3-yl)-6-fluoro-2-oxo-2,3-dihydro-1H-indol-3-yl]carboxamide] | < 1 | +++ (>75) | +++ (>75) |
| CCOc1ccccc1C1(NC(=O)N2CCC(N3CCN(CC)CC3)CC2)C(=O)N(S(=O)(=O)c2ccccc2)c2cc(F)c(C#N)cc21 (stereo not drawn) [Example 18, 4-(4-Ethylpiperazin-1-yl)piperidine-1-[1-phenylsulfonyl-5-cyano-3-(2-ethoxyphenyl)-6-fluoro-2-oxo-2,3-dihydro-1H-indol-3-yl]carboxamide] | 1 to 10 | + (10-<25) | +++ (>75) |

Reference: patent US8546401B2, “5,6-disubstituted oxindole-derivatives and use thereof for treating vasopressin-dependent diseases” (AbbVie Deutschland GmbH & Co. KG, priority 2007, dated 2013)
